What all share (experiment): NCI-60 cell line screen, 48 h
In assay [1] the test system is LOX IMVI melanoma.
The test system of assay [2] is NCI-H522 lung.
The test system of assay [3] is NCI-H23 lung.
The test system of assay [4] is HOP-92 NSCLC.
Assay [5] relates to OVCAR-3 ovarian.
The subject of assay [6] is PC-3 prostate.
For assay [7], the system named is NCI/ADR-RES ovarian.
Assay [8] concerns TK-10 renal.
Assay [9] relates to RPMI-8226 leukemia.
Assay [10] concerns EKVX NSCLC.
For assay [11], the system named is HCC-2998 colon.
Assay [12] deals with OVCAR-4 ovarian.
The subject of assay [13] is SK-OV-3 ovarian.
The subject of assay [14] is HCT-116 colon.
In assay [15] the test system is M14 melanoma.
The subject of assay [16] is U251 CNS.
For assay [17], the system named is SNB-75 CNS.
Assay [18] has as its system RXF 393 renal.
The test system of assay [19] is HOP-62 NSCLC.

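Exposure lasted 48 hours, with cells grown in 96-well plates and compounds tested at five concentrations. Definition used: TGI = concentration required for complete inhibition of growth.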

Turning to `Cc1ccccc1NC(=O)C(=O)Cc1cnc2ccccc2n1`, the TGI in assay [1], in [2], in [3], in [4], in assay [5] and in assay [6] was greater than 100 µM in each case. For the same compound, the TGI in [7], in [8], in [9], in assay [10], in assay [11] and in [12] was greater than 100 µM in each case. In addition, the TGI in assay [13], in assay [14], in assay [15] and in [16] was greater than 100 µM each time.
Regarding `Oc1ccc2ccccc2c1Cc1c(O)ccc2ccccc12`, the TGI in assay [1] came to 38.7 µM; in assay [2], 26 µM; in assay [3], 37.8 µM; in assay [17] it was 42.2 µM; in assay [5], 28.4 µM; in assay [6] it was 35.1 µM. The TGI stood at 37.4 µM in [7]; 48.9 µM in [8]; 36 µM in [18]; 40.4 µM in assay [9]; 32.6 µM in assay [10]; 41.4 µM in [19]. In addition, the TGI came out at 40.6 µM in [11]; 30.6 µM in assay [12]; 35 µM in assay [13]; 34.4 µM in [14]; 34.9 µM in [15]; 34.4 µM in [16].
For the compound `c1ccc2c3nnc(c2c1)SCCSCCCSCCS3`, the TGI in assay [1] is greater than 100 µM; in assay [2] it was greater than 100 µM; in assay [3], greater than 100 µM; in assay [17], 18.5 µM; in assay [4], 87.7 µM; in [5], greater than 100 µM. Moreover, the TGI in assay [6] was greater than 100 µM; in assay [7], greater than 100 µM; in [8], greater than 100 µM; in [18], 95.7 µM; in assay [10] it was greater than 100 µM; in [19] it was 70.9 µM. Moreover, the TGI in assay [11] is greater than 100 µM; in assay [12] it was 25.8 µM; in [13], 97.5 µM; in assay [14], greater than 100 µM; in assay [15], greater than 100 µM; in assay [16], greater than 100 µM.
For the compound `Cc1cc(Br)cc(C)c1NC(=O)C(=O)C1C(=O)C(CC2C(=O)c3ccccc3C2=O)C(=O)CC1(C)C` (stereo not given), the TGI in assay [1], in assay [2], in assay [3], in assay [17], in assay [4] and in assay [5] was greater than 100 µM throughout. The TGI in assay [6], in [7], in [8], in [18], in [10] and in assay [19] was greater than 100 µM throughout. Moreover, the TGI in assay [11], in [12], in assay [13], in assay [14], in assay [15] and in assay [16] was greater than 100 µM throughout.
Regarding `CC[N+](CC)(CC)/C(=N/S(=O)(=O)c1cc(C)c(Cl)cc1S)[N-]S(=O)(=O)c1ccc(Cl)cc1`, the TGI in assay [1] was greater than 100 µM; in assay [2], greater than 100 µM; in [3], greater than 100 µM; in [4], 49.7 µM; in assay [5], greater than 100 µM; in assay [6], greater than 100 µM. Moreover, the TGI in assay [7], in assay [8], in assay [18], in assay [9], in assay [10] and in [19] was greater than 100 µM throughout. Further, the TGI was greater than 100 µM in assay [11]; greater than 100 µM in [12]; greater than 100 µM in assay [13]; 65.6 µM in [14]; greater than 100 µM in assay [15]; greater than 100 µM in [16].
In the case of `O=[N+]([O-])c1ccc(N2N=C(c3ccc4ccccc4c3O)CC2c2ccc(Cl)cc2Cl)c([N+](=O)[O-])c1` (stereo not given), the TGI in assay [1], in assay [2], in assay [3], in [17], in assay [5] and in assay [6] was greater than 100 µM throughout. The TGI in assay [7] is greater than 100 µM; in [8], greater than 100 µM; in [18], greater than 100 µM; in [9], 41.4 µM; in assay [10], greater than 100 µM; in assay [19], greater than 100 µM. Besides, the TGI in assay [11], in [12], in assay [13], in [14] and in assay [16] was greater than 100 µM each time.
